Measured values: patent US20230295162A1 (EÖTVÖS LORÁND TUDOMÁNYEGYETEM, priority 2020, published 2023)
Like-named read-outs stand apart in the source and are kept apart here.

What was measured:
Panc-1 human cell line = assay: Cytotoxicity on Panc-1, xCELLigence SP, IC50 after 24 h, 48 h, 72 h and 96 h (Example 22)
[1] = test system: PC-3 (prostate, adenocarcinoma) cells; assay: Cell viability assay, CellTiter-Glo (Example 21); type: cell-based, human; conditions: 72 h treatment
Procedure, shortened: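 Cancer cell viability was assessed by luminescence using Promega's CellTiter-Glo® kit. PC-3 cells, plated at a density of 1000 cells/well in white flat-bottom 96 well plates, were exposed to test compounds, after which signals were measured on a microplate reader and dose-response curves fitted by four-parameter variable-slope non-linear regression in GraphPad Prism 8.4.2.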

[2] = test system: MIA PaCa-2 (pancreas, carcinoma) cells; assay: Cell viability assay, CellTiter-Glo (Example 21); type: cell-based, human; conditions: 72 h treatment
Procedure, shortened: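 Cell viability of MIA PaCa-2 cells was assessed by CellTiter-Glo® luminescence (Promega, Madison, WI, USA). Cells were plated at 1000 cells/well, a density chosen for their size and growth rate, in white flat-bottomed 96 well plates. After treatment, the signal was recorded on a BioTek microplate reader, and dose-response curves were fitted in GraphPad Prism 8.4.2 with a four-parameter variable-slope non-linear regression.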

[3] = test system: DU 145 (prostate, carcinoma) cells; assay: Cell viability assay, CellTiter-Glo (Example 21); type: cell-based, human; conditions: 72 h
Procedure, shortened: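 DU 145 prostate carcinoma cells were plated at 1000 cells/well in white flat-bottom 96 well plates and exposed to compound. Viability was then determined by CellTiter-Glo® luminescence on a BioTek Synergy 2 reader, and dose-response curves were fitted in GraphPad Prism 8.4.2 with a four-parameter variable-slope non-linear regression.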

[4] = test system: MDA-MB-231 (breast, adenocarcinoma) cells; assay: Cell viability assay, CellTiter-Glo (Example 21); type: cell-based, human; conditions: 72 h treatment
Procedure, shortened: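 Viability of MDA-MB-231 cells was quantified by luminescence using Promega's CellTiter-Glo® kit per manufacturer instructions. Cells, plated at a size- and growth-optimized density of 1500 cells/well in white flat-bottom 96 well plates, were treated and then read on a BioTek Synergy 2 reader; dose-response curves used four-parameter variable-slope non-linear regression in GraphPad Prism 8.4.2.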

[5] = test system: SCC-25 (tongue, squamous cell carcinoma) cells; assay: Cell viability assay, CellTiter-Glo (Example 21); type: cell-based, human; conditions: 72 h treatment
Procedure, shortened: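 Cell viability of SCC-25 cells was assessed by CellTiter-Glo luminescence after compound exposure. Cells were plated at 1000 cells/well, a density chosen for their size and growth rate, on white flat-bottom 96 well plates. Signal was recorded on a microplate reader, and dose-response curves were fitted in GraphPad Prism by four-parameter variable-slope non-linear regression.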

[6] = test system: MDA-MB-453 (breast, carcinoma) cells; assay: Cell viability assay, CellTiter-Glo (Example 21); type: cell-based, human; conditions: 72 h treatment
Procedure, shortened: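 Cells were seeded at optimized densities (Panc-1 750, FaDu 1000, Detroit 562 and MDA-MB-453 1500 cells/well), then treated with compound. Viability was read by CellTiter-Glo luminescence. Dose-response curves were fitted by four-parameter variable-slope non-linear regression.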

[7] = test system: Capan-1 (pancreas, adenocarcinoma) cells; assay: Cell viability assay, CellTiter-Glo (Example 21); type: cell-based, human; conditions: 72 h treatment
Procedure, shortened: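 Viability of Capan-1 pancreatic adenocarcinoma cells was assessed using Promega's CellTiter-Glo® luminescence kit. Cells were plated at 1000 cells/well in white, flat-bottom 96 well plates, treated, then luminescence was recorded on a BioTek Synergy 2 reader. Dose-response curves were fitted in GraphPad Prism 8.4.2 with a four-parameter variable-slope non-linear regression.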

[8] = test system: EBC-1 lung cancer cell line; assay: High-throughput screening, CellTiter-Glo cell viability assay at 100 nM; type: cell-based, human; conditions: Homo sapiens, EBC-1, HTS, compounds at 100 nM, 72 h, read-out: cytotoxicity expressed in IC50, EBC-1 (results of High throughput screening)
[9] = test system: H2228 lung cancer cell line; assay: as above; type: cell-based, human; conditions: Homo sapiens, NCI-H2228, HTS, compounds at 100 nM, 72 h, read-out: cytotoxicity expressed in IC50, H2228 (results of High throughput screening)
Fadu cell line = assay: Additional in vitro IC50 tests (Table 3); type: cell-based; conditions: Homo sapiens
Procedure, shortened: (§1)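 Cells at 1000/well, viability by CellTiter-Glo luminescence after compound treatment, as % of untreated control. IC50 from variable-slope log(inhibitor) vs response nonlinear regression.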

SCC-25 cell line = assay: Additional in vitro IC50 tests (Table 3); type: cell-based; conditions: Homo sapiens
Procedure, shortened: as §1

H2228 cell line = assay: Additional in vitro IC50 tests (Table 3); type: cell-based; conditions: Homo sapiens, NCI-H2228
Procedure, shortened: as §1

Detroit 562 cell line = assay: Additional in vitro IC50 tests (Table 3); type: cell-based; conditions: Homo sapiens
Procedure, shortened: as §1

EBC-1 cell line = assay: Additional in vitro IC50 tests (Table 3); type: cell-based; conditions: Homo sapiens
Procedure, shortened: as §1

[10] = test system: Panc1 pancreatic cancer cell line; assay: CellTiter-Glo IC50 (Example 19); type: cell-based; conditions: Homo sapiens, PANC-1, 72 h
Procedure, shortened: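 Following treatment of 1000-cell/well cultures at 37° C, 5% CO2, CellTiter-Glo replaced the medium and luminescence was recorded. Data normalised to untreated controls; IC50 by variable-slope regression.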

[11] = PANC-1, 72 h, read-out: IC50 (72 h) [nM]
[12] = PANC-1, 96 h, read-out: IC50 (96 h) [nM]

Row | Compound | IC50 (Panc-1 human cell line; [11]) [nM] | IC50 (Panc-1 human cell line; [12]) [nM] | PC-3 (prostate, adenocarcinoma) cell viability (% of control) ([1]; 3.7 nM) | PC-3 (prostate, adenocarcinoma) cell viability (% of control) ([1]; 11.1 nM) | PC-3 (prostate, adenocarcinoma) cell viability (% of control) ([1]; 100 nM) | PC-3 (prostate, adenocarcinoma) cell viability (% of control) ([1]; 300 nM) | MIA PaCa-2 (pancreas, carcinoma) cell viability (% of control) ([2]; 3.7 nM) | MIA PaCa-2 (pancreas, carcinoma) cell viability (% of control) ([2]; 11.1 nM) | MIA PaCa-2 (pancreas, carcinoma) cell viability (% of control) ([2]; 100 nM) | MIA PaCa-2 (pancreas, carcinoma) cell viability (% of control) ([2]; 300 nM) | DU 145 cell viability ([3]; 3.7 nM) | DU 145 cell viability ([3]; 11.1 nM) | DU 145 cell viability ([3]; 100 nM) | DU 145 cell viability ([3]; 300 nM) | MDA-MB-231 (breast, adenocarcinoma) cell viability (% of control) ([4]; 3.7 nM) | MDA-MB-231 (breast, adenocarcinoma) cell viability (% of control) ([4]; 11.1 nM) | MDA-MB-231 (breast, adenocarcinoma) cell viability (% of control) ([4]; 100 nM) | MDA-MB-231 (breast, adenocarcinoma) cell viability (% of control) ([4]; 300 nM) | SCC-25 (tongue, squamous cell carcinoma) cell viability (% of control) ([5]; 3.7 nM) | SCC-25 (tongue, squamous cell carcinoma) cell viability (% of control) ([5]; 11.1 nM) | also measured
1 | O=C1C2=C(CCN(Cc3ccccc3)C2)N2CCN=C2N1Cc1ccc(C(F)(F)F)cc1 [I/1, reference compound] | 274 ± 15.9 | 185 ± 44.4 | 106.0 ± 2.8 % of control | 102.4 ± 3.7 % of control | 60.4 ± 5.2 % of control | 33.3 ± 3.3 % of control | 105.7 ± 8.5 % of control | 108.5 ± 11.2 % of control | 43.4 ± 13.5 % of control | 17.3 ± 8.8 % of control | 99.0 ± 4.6 % of control | 101.3 ± 4.3 % of control | 17.5 ± 4.2 % of control | 8.1 ± 2.2 % of control | 101.0 ± 4.4 % of control | 97.9 ± 1.1 % of control | 87.9 ± 4.4 % of control | 56.8 ± 2.1 % of control | 108.5 ± 8.6 % of control | 105.5 ± 12.7 % of control | SCC-25 (tongue, squamous cell carcinoma) cell viability (% of control) ([5]; 100 nM): 76.7 ± 19.9 % of control; SCC-25 (tongue, squamous cell carcinoma) cell viability (% of control) ([5]; 300 nM): 37.6 ± 4.3 % of control; MDA-MB-453 (breast, carcinoma) cell viability (% of control) ([6]; 3.7 nM): 111.0 ± 7.3 % of control; MDA-MB-453 (breast, carcinoma) cell viability (% of control) ([6]; 11.1 nM): 110.8 ± 2.3 % of control; MDA-MB-453 (breast, carcinoma) cell viability (% of control) ([6]; 100 nM): 37.9 ± 1.3 % of control; MDA-MB-453 (breast, carcinoma) cell viability (% of control) ([6]; 300 nM): 32.5 ± 0.5 % of control; Capan-1 (pancreas, adenocarcinoma) cell viability (% of control) ([7]; 3.7 nM): 100.3 ± 4.0 % of control; Capan-1 (pancreas, adenocarcinoma) cell viability (% of control) ([7]; 11.1 nM): 99.2 ± 3.8 % of control; Capan-1 (pancreas, adenocarcinoma) cell viability (% of control) ([7]; 100 nM): 88.1 ± 4.2 % of control; Capan-1 (pancreas, adenocarcinoma) cell viability (% of control) ([7]; 300 nM): 36.8 ± 3.4 % of control; IC50 [8]: < 100 nM; IC50 [9]: > 100 nM; IC50 (Fadu cell line): 90 nM; IC50 (SCC-25 cell line): 166 nM; IC50 (H2228 cell line): 105 nM; IC50 (Detroit 562 cell line): 32 nM; IC50 (EBC-1 cell line): 76 nM; IC50 [10]: 74 nM
2 | O=C1C2=C(CCN(Cc3cc(F)cc(F)c3)C2)N2CCN=C2N1Cc1ccc(F)cc1 [I/7, 4-(4-Fluorobenzyl)-7-(3,5-difluorobenzyl)-2,4,6,7,8,9-hexahydroimidazo[1,2-a]pyrido[3,4-e]pyrimidin-5(1H)-one] | 27.3 ± 15.4 | 22.1 ± 5.98 | 82.1 ± 1.6 % of control | 38.9 ± 2.1 % of control | 34.6 ± 3.0 % of control | 34.3 ± 3.4 % of control | 87.4 ± 12.0 % of control | 23.1 ± 6.3 % of control | 18.5 ± 6.8 % of control | 19.8 ± 8.6 % of control | 64.1 ± 8.0 % of control | 7.5 ± 0.6 % of control | 7.2 ± 2.3 % of control | 8.5 ± 2.4 % of control | 99.6 ± 2.2 % of control | 63.6 ± 4.4 % of control | 58.6 ± 3.0 % of control | 59.4 ± 3.0 % of control | 88.7 ± 5.6 % of control | 45.1 ± 4.7 % of control | SCC-25 (tongue, squamous cell carcinoma) cell viability (% of control) ([5]; 100 nM): 35.1 ± 2.2 % of control; SCC-25 (tongue, squamous cell carcinoma) cell viability (% of control) ([5]; 300 nM): 39.7 ± 2.7 % of control; MDA-MB-453 (breast, carcinoma) cell viability (% of control) ([6]; 3.7 nM): 55.8 ± 6.5 % of control; MDA-MB-453 (breast, carcinoma) cell viability (% of control) ([6]; 11.1 nM): 35.8 ± 1.3 % of control; MDA-MB-453 (breast, carcinoma) cell viability (% of control) ([6]; 100 nM): 33.1 ± 1.1 % of control; MDA-MB-453 (breast, carcinoma) cell viability (% of control) ([6]; 300 nM): 31.6 ± 0.9 % of control; Capan-1 (pancreas, adenocarcinoma) cell viability (% of control) ([7]; 3.7 nM): 101.9 ± 3.8 % of control; Capan-1 (pancreas, adenocarcinoma) cell viability (% of control) ([7]; 11.1 nM): 46.0 ± 7.5 % of control; Capan-1 (pancreas, adenocarcinoma) cell viability (% of control) ([7]; 100 nM): 36.1 ± 2.8 % of control; Capan-1 (pancreas, adenocarcinoma) cell viability (% of control) ([7]; 300 nM): 35.5 ± 3.3 % of control; IC50 [8]: < 100 nM; IC50 [9]: < 100 nM; IC50 (Fadu cell line): 10 nM; IC50 (SCC-25 cell line): 13 nM; IC50 (H2228 cell line): 10 nM; IC50 (Detroit 562 cell line): 3 nM; IC50 (EBC-1 cell line): 9 nM; IC50 [10]: 11 nM
